According to ChEMBL document CHEMBL1201862, “PubChem BioAssay data set” (2004):
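Following 48 hours of exposure in 96-well plates, responses at five concentrations were used to interpolate endpoints linearly. At the GI50, growth is halved.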 Activity calls are given as the source filed them. Cut-off read from the data, not from the text of the source: active = GI50 up to about 1.1 µM and inactive = higher.

How the values were obtained:
Assay in all cases: DTP human tumour cell line panel, 48 h
786-0 = system: 786-0
A498 = system: A498
A549 = system: A549
ACHN = system: ACHN
CAKI-1 = system: CAKI-1
CCRF-CEM = system: CCRF-CEM
COLO 205 = system: COLO 205
DU-145 = system: DU-145
EKVX = system: EKVX
HCC 2998 = system: HCC 2998
HCT-116 = system: HCT-116
HCT-15 = system: HCT-15
HL-60 = system: HL-60
HOP-62 = system: HOP-62
HOP-92 = system: HOP-92
HT-29 = system: HT-29
Hs-578T = system: Hs-578T
IGROV-1 = system: IGROV-1
K562 = system: K562
KM12 = system: KM12
LOX IMVI = system: LOX IMVI
M14 = system: M14
MCF7 = system: MCF7
MDA-MB-231 = system: MDA-MB-231
MDA-MB-435 = system: MDA-MB-435
MDA-N = system: MDA-N
MOLT-4 = system: MOLT-4
Malme-3M = system: Malme-3M
NCI-H226 = system: NCI-H226
NCI-H23 = system: NCI-H23
NCI-H460 = system: NCI-H460
NCI-H522 = system: NCI-H522
NCI/ADR-RES = system: NCI/ADR-RES
OVCAR-3 = system: OVCAR-3
OVCAR-4 = system: OVCAR-4
OVCAR-5 = system: OVCAR-5
OVCAR-8 = system: OVCAR-8
PC-3 = system: PC-3
RXF 393 = system: RXF 393
SF-268 = system: SF-268
SF-295 = system: SF-295
SF-539 = system: SF-539
SK-MEL-28 = system: SK-MEL-28
SK-OV-3 = system: SK-OV-3
SN12C = system: SN12C
SNB-19 = system: SNB-19
SNB-75 = system: SNB-75
SR = system: SR
SW-620 = system: SW-620
T47D = system: T47D
TK-10 = system: TK-10
U-251 = system: U-251
UACC-257 = system: UACC-257
UACC-62 = system: UACC-62

With `CCOC(=O)c1c(SC(=O)c2ccc(C(C)(C)C)cc2)n(-c2ccccc2)c(=S)n(-c2ccccc2)c1=O` the GI50 (786-0) was > 100 µM (inactive), the GI50 (A498) was > 100 µM (inactive) and the GI50 (A549) was > 100 µM (inactive). For the same compound, the GI50 (ACHN) was > 100 µM (inactive), the GI50 (CAKI-1) was > 100 µM (inactive) and the GI50 (CCRF-CEM) was 29.7 µM (inactive). For the same compound, the GI50 (COLO 205) was > 100 µM (inactive), the GI50 (DU-145) was > 100 µM (inactive) and the GI50 (EKVX) was > 100 µM (inactive). For the same compound, the GI50 (HCC 2998) was > 100 µM (inactive), the GI50 (HCT-116) was > 100 µM (inactive) and the GI50 (HCT-15) was greater than 100 µM. The GI50 (HL-60) was > 100 µM (inactive), the GI50 (HOP-62) was > 100 µM (inactive) and the GI50 (HOP-92) was > 100 µM (inactive). For the same compound, the GI50 (HT-29) was > 100 µM (inactive), the GI50 (Hs-578T) was > 100 µM (inactive) and the GI50 (IGROV-1) was > 100 µM (inactive). The GI50 (K562) was > 100 µM (inactive), the GI50 (KM12) was > 100 µM (inactive) and the GI50 (LOX IMVI) was > 100 µM (inactive). For the same compound, the GI50 (M14) was > 100 µM (inactive), the GI50 (MCF7) was > 100 µM (inactive) and the GI50 (MDA-MB-231) was > 100 µM (inactive). The GI50 (MDA-MB-435) was > 100 µM (inactive), the GI50 (MDA-N) was > 100 µM (inactive) and the GI50 (MOLT-4) was 59.4 µM (inactive). For the same compound, the GI50 (Malme-3M) was > 100 µM (inactive), the GI50 (NCI-H226) was > 100 µM (inactive) and the GI50 (NCI-H23) was > 100 µM (inactive). The GI50 (NCI-H460) was > 100 µM (inactive), the GI50 (NCI-H522) was > 100 µM (inactive) and the GI50 (NCI/ADR-RES) was > 100 µM (inactive). For the same compound, the GI50 (OVCAR-3) was > 100 µM (inactive), the GI50 (OVCAR-4) was > 100 µM (inactive) and the GI50 (OVCAR-5) was > 100 µM (inactive). For the same compound, the GI50 (OVCAR-8) was > 100 µM (inactive), the GI50 (PC-3) was > 100 µM (inactive) and the GI50 (RXF 393) was > 100 µM (inactive). The GI50 (SF-268) was > 100 µM (inactive), the GI50 (SF-295) was > 100 µM (inactive) and the GI50 (SF-539) was > 100 µM (inactive). For the same compound, the GI50 (SK-MEL-28) was > 100 µM (inactive), the GI50 (SK-OV-3) was > 100 µM (inactive) and the GI50 (SN12C) was > 100 µM (inactive). For the same compound, the GI50 (SNB-19) was > 100 µM (inactive), the GI50 (SNB-75) was > 100 µM (inactive) and the GI50 (SR) was > 100 µM (inactive). The GI50 (SW-620) was > 100 µM (inactive), the GI50 (T47D) was > 100 µM (inactive) and the GI50 (TK-10) was > 100 µM (inactive). For the same compound, the GI50 (U-251) was > 100 µM (inactive), the GI50 (UACC-257) was > 100 µM (inactive) and the GI50 (UACC-62) was > 100 µM (inactive).
